Assay [1] can be described thus: cells.
A further assay deals with Major prion protein (Homo sapiens, UniProt P04156). Format: functional, cell-based.
The next assay has as its target NS3 (Hepatitis C virus, UniProt A3EZJ3). The assay is described as follows: PubChem AID 2173. Set-up: species or system Hepacivirus hominis.
A short description of assay [2]: rise of 2N DNA cells, HeLa – IC50, dose response (AID 1117349). Format: functional, cell-based.
Assay [3] in a line: rise of 4N DNA cells, HeLa – IC50, dose response (AID 1117351). Format: functional, cell-based.
Another assay has as its system H4. The assay is described as follows: Luminescence Cell-Based Dose Response HTS to Identify Activators of 5'UTR Stem-Loop Driven Prion Protein mRNA Translation in H4 Neuroglioblastoma Cells. [Related pubchem assays: 1829 (Project Summary), 1814 (Primary HTS)]. Type of assay: functional. Particulars: Homo sapiens.
Assay [4] in a line: Luminescence Cell-Based Dose Response HTS to Identify Activators of Luciferase Translation or Activity in H4 […] Cells. [Related pubchem assays: 1829 (Project Summary), 1814 (Primary HTS)]. Type of assay: functional.
Assay [5] can be described thus: viability of uninfected HEp-2 cells – cell-based, HTS, cytotoxicity control for RSV inhibitor project, dose response (AID 2410). Particulars: human respiratory syncytial virus. Format: functional.
Assay [6] in a line: Luminescence Cell-Based Dose Confirmation HTS to Identify Activators of 5'UTR Stem-Loop Driven Alpha-Synuclein mRNA Translation in H4 Neuroglioblastoma Cells. [Related pubchem assays: 1829 (Project Summary), 1814 (Primary HTS)]. Format: functional.
A further assay concerns the target T1, Estrogen receptor (Homo sapiens, UniProt P03372).
T1 sequence (P03372 whole entry): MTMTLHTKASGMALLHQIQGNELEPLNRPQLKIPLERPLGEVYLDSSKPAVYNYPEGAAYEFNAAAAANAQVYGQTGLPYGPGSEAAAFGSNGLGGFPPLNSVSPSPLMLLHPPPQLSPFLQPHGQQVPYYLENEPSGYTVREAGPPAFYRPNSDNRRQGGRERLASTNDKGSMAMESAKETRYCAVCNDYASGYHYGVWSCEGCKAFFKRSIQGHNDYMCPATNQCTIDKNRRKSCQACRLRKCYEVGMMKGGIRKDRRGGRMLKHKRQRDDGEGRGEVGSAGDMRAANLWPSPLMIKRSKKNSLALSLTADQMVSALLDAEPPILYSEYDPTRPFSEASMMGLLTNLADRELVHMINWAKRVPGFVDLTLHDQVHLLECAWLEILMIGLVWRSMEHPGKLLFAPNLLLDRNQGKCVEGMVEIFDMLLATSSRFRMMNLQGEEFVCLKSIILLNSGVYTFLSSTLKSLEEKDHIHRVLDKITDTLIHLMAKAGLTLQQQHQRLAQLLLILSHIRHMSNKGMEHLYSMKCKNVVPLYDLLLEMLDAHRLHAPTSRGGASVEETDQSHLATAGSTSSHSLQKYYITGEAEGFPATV
The assay is described as follows: ERα coactivator recruitment enhancers – biochemical, TR-FRET, ERα LBD, dose response (AID 737).

Assay [7] is described as follows: viability inhibitors of stage V gametocytes – luminescence, dose response (AID 1117278).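 Note: gametocytes exposed to compound for 24 hours.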 Format: functional, cell-based.
The nature of assay [8]: viability loss in human Jurkat cells – cell-based, luminescence, cytotoxicity control for P. falciparum gametocyte viability project, dose response (AID 1117277).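 Note: potency reflects loss of cellular ATP meaning fewer viable cells.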 Format: functional.
Assay [9] in a line: cells. The source holds these as a separate data set.
Assay [10] in a line: Trypanosoma cruzi growth suppression in host cells – NIH3T3 host cells, beta-gal luminescence, confirmation (AID 2044).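 Note: intracellular parasites grown in NIH/3T3 mouse fibroblasts as host cells; luminescent beta-galactosidase reporter signal from transgenic T. cruzi replicating inside host cells; inhibitors lower the luminescence signal.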 Format: functional, cell-based.
Assay [11] is described as follows: NIH3T3 cell viability loss – ATP luminescence, mouse fibroblasts, counter-screen, dose response (AID 2010).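 Note: cells exposed to compound for about 90 hours before reading.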 Format: functional, cell-based.
Assay [12] has as its target Glyceraldehyde-3-phosphate dehydrogenase (Homo sapiens, UniProt P04406).
In assay [13] the target is T2, Bcl-2-related protein A1 (Mus musculus, UniProt Q07440).
T2 sequence (Q07440 whole entry): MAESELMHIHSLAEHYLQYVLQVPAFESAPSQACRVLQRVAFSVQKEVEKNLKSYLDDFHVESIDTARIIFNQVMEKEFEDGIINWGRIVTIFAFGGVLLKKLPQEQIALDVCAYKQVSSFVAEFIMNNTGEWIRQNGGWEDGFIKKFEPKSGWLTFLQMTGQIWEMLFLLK
The assay can be described thus: small-molecule antagonists of Bfl-1/BH3 interaction – biochemical, TR-FRET, mouse Bfl-1, confirmation (AID 621).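 Note: TR-FRET binding of GST-Bfl-1 to FITC-labelled Bid peptide via terbium antibody.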

The target in assay [14] is T2, Bcl-2-related protein A1. The assay is described as follows: Bfl-1 binding inhibitors, SAR follow-up, biochemical, fluorescence polarization (AID 1070). In general terms: In fluorescence polarisation assays a small probe gives low polarisation when free and higher when bound to something large.

The source made the active and inactive calls.

Turning to `CCCOc1ccc(C(=O)C2=C(O)C(=O)N(c3ccccn3)C2c2ccccc2F)cc1C` (stereo not given), the results for the IC50 in the assay “cells [1]”, at Major prion protein and at NS3 were > 138 µM (inactive), 2.96 µM (active) and 5.77 µM (active), respectively.

Take `Nc1nc(=O)n([C@@H]2O[C@H](CO)[C@@H](O)[C@@H]2F)cc1I` [FIACITABINE]: the IC50 in assay [2] and in assay [3] was > 10 µM (inactive) in each case.

Regarding `C[C@H]1CCC[C@@H](O)CCC/C=C/c2cc(O)cc(O)c2C(=O)O1`, the concentration for a half-maximal effect (EC50) – broadly, the concentration giving half of the maximal effect – with H4 is > 120 µM (not active); in assay [4], > 120 µM (not active); in [6], 15.3 µM (active); on Estrogen receptor, 9.22 µM (active). For the same compound, the half-maximal cytotoxic concentration (CC50) (as a rule, the concentration that lowers cell viability or growth by half) in assay [5] is 8.71 µM (active).

`O=[N+]([O-])c1cccc(S(=O)(=O)c2ccc(N3CCCCC3)c([N+](=O)[O-])c2)c1`: the IC50 – broadly, the midpoint of a concentration-inhibition curve – was > 109 µM (inactive) in assay [7] and > 83.3 µM (inactive) in assay [8].

As for `COC(=O)c1c(NC(=O)Cn2cnc([N+](=O)[O-])n2)sc2c1CCC(C)C2` (stereo not given), the concentration giving a half-maximal response (EC50) in the assay “cells [9]” is 112 nM (active); in assay [10], < 100 nM (active); in [11] it was > 60 µM (inconclusive).

Take `CCN1CCN(C(=O)c2ccc3c(=O)n(C4CCCC4)c(=S)[nH]c3c2)CC1`: the IC50 in assay [7] was > 109 µM (inactive); in assay [8], > 83.3 µM (inactive).

On to `O=C1C(Cl)=C(Cl)C(=O)N1c1ccc(Cl)cc1Cl`, for which the IC50 in assay [12] is > 100 µM (not active); on Bcl-2-related protein A1 [13] it was 740 nM (active); at Bcl-2-related protein A1 [14] it was 1.64 µM (active).
